Key:
[1] = Metabolic stability in liver microsomes (MLM); format: in vitro ADME, mice; details: 0.25 mg/mL protein
In short: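 Mouse liver microsomes (0.25 mg/mL protein) in 50 mM potassium phosphate pH 7.4 at 37 °C with 1 µM compound, 1 mM NADPH, 0.1% DMSO; sampled 0–60 min in duplicate. LC-MS/MS parent depletion gives half-life; CL'int in mL/min/kg scaled with 45 mg protein/g liver, 90 g liver.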

[2] = target: T1, BRN2 (Homo sapiens, UniProt P20265); assay: Drug Affinity Responsive Target Stability (DARTS) assay; details: printed in BLI binding column; 42D^ENZR lysate
T1 sequence (P20265 1-443): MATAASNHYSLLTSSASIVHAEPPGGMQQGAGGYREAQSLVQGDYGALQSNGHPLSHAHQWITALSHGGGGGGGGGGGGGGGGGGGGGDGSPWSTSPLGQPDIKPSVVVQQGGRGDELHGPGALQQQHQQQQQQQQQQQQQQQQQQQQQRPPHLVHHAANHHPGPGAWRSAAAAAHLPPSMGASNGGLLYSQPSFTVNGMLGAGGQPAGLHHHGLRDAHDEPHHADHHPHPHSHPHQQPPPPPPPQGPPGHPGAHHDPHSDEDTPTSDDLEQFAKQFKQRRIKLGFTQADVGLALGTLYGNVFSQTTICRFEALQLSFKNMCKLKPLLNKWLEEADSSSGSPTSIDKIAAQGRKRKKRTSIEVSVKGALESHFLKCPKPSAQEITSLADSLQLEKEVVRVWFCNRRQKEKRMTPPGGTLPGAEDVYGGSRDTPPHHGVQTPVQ
Procedure: Step 2: Drug Affinity Responsive Target Stability (DARTS) Assay
This in cell assay provides a yes/no answer to direct interaction between BRN2 inhibitor and protein.
1) Prepare and place the following on ice: • Pronase • TNC 10× • 500 mM Tris-HCl (pH 8.0) • 500 mM NaCl, 100 mM CaCl2 • DMSO • Drug • 10 mL NP40+Protease inhibitor+Phosphatase inhibitor solution (can store in 4° C. and use for up to 4 weeks): • 2 mL NP40 5× • 8 mL ddH2O • 1 PhosphoSTOP™ pill • 200 uL protease inhibitor 50×
2) Remove the growth medium from the cell plate (42D^ENZR) and add 10 mL of cold PBS/vanadate.
3) Scrape the cells. Remove the PBS-cell solution and add in a falcon tube.
4) Name a new 1.5 ml Eppendorf tube and put on ice to pre-chill.
5) Centrifuge the cells at 1500 for 5 minutes at 4° C. Remove supernatant and re-suspend the cells in 600 uL NP40 lysis buffer by pipetting up and down. If the cell pellet is small use less volume, for example 300 μl)
6) Transfer the lysing cells into the pre-chilled Eppendorf tube. Incubate on ice for 20 minutes. If not continuing the DARTS on the same day, you can put the lysate in −30 and work on it later.
Preparing Cell Lysates for DARTS:
7) Centrifuge the tube at maximum speed for 25-30 minutes at 4° C.
8) Discard the pellet (either transfer the supernatant in a new tube or just take out the pellet). […]
20) The samples are ready for Western blot gel running. […]

half-life at 1 μM ([1]; mouse, liver microsomes, pH 7.4, 1 μM compound, read-out: T1/2 in mins (MLM)): 40 min
Met Stab % (60 mins) MLM ([1]; percent remaining at 60 min, 1 μM compound, 1 mM NADPH): 31%
SMILES: O=C1/C(=N\Nc2nc3ccccc3s2)Cc2ccccc21 [7-62, (Z)-2-(2-(benzo[d]thiazol-2-yl)hydrazineylidene)-2,3-dihydro-1H-inden-1-one]
binding observed using DARTS assay [2]: Strong binding observed using DARTS assay
